The text below walks through data of patent US8883963B2 (Cadila Healthcare Limited, priority 2007, dated 2014).

Series [1] has as its system RIN5F (Rat Insulinoma) cells. As to the kind of experiment: In vitro glucose-dependent insulin secretion (RIN5F cell assay screening protocol). The following applies: 16.7 mM glucose load. It is filed as cell-based.
In another series the target is T1, human glucagon receptor (Homo sapiens, UniProt P47871).
T1 construct: The full-length cDNA was cloned in pcDNA3.1 (Invitrogen); expressed in transfected cells
T1 sequence (P47871 26-477): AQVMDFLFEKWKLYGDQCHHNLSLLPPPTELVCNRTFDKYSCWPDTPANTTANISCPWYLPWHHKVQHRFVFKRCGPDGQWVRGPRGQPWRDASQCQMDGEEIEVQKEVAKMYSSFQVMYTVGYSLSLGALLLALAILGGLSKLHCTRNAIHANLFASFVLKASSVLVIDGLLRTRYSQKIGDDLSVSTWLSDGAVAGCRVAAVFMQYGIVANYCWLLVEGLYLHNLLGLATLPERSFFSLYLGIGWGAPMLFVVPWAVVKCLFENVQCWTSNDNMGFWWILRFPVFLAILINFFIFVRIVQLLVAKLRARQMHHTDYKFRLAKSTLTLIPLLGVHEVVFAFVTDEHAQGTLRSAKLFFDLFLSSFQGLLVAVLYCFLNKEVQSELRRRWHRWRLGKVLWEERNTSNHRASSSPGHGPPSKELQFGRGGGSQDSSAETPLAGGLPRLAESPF
As to the kind of experiment: In vitro human glucagon antagonist activity (inhibition of cAMP production) in CHO/human glucagon R cells. It is filed as cell-based. The following applies: with saturated concentration of glucagon peptide. For orientation: Changes in cAMP serve as a functional read-out for many G protein-coupled receptors.

The target of the next series is DPP IV (Homo sapiens, UniProt P27487). As to the kind of experiment: Stability against DPP IV enzyme. In kind it is in vitro ADME. As to conditions: 37° C.; for % degradation of peptidomimetics in 24 h when incubated with DPP-IV enzyme: 2 μM peptidomimetic. As for the experimental part: (§1) Reactions were terminated by the addition of TFA/H2O (15 mL, 10% (v/v)). […] The column was equilibrated with TFA/H20, at a flow rate of 1 mL/min.
Chain of DPP IV (P27487 whole entry, species assumed): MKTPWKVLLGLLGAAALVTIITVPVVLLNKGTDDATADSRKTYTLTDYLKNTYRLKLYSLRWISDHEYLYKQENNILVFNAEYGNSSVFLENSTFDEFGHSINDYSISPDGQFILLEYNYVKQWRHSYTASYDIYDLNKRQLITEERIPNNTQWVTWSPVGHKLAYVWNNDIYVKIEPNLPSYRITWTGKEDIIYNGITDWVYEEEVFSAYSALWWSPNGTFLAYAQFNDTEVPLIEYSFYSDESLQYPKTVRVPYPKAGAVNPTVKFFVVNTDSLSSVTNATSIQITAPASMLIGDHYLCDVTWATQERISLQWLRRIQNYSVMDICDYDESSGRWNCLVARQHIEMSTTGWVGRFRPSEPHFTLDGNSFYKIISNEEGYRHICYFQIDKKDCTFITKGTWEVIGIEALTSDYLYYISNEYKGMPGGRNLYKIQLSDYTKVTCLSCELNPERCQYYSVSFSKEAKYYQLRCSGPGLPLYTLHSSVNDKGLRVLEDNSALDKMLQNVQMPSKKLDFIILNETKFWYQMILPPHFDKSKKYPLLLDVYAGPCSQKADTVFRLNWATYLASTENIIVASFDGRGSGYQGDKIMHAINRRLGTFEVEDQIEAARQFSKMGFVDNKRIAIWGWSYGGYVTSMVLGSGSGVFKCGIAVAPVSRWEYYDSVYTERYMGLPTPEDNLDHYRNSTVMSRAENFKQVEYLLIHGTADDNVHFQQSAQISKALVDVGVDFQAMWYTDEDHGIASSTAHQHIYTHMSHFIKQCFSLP

A further series deals with T2, Human GLP-1 receptor (Homo sapiens, UniProt P43220).
T2 construct: The full-length cDNA was cloned in pcDNA3.1(+); expressed in transfected cells
T2 sequence (P43220 24-463): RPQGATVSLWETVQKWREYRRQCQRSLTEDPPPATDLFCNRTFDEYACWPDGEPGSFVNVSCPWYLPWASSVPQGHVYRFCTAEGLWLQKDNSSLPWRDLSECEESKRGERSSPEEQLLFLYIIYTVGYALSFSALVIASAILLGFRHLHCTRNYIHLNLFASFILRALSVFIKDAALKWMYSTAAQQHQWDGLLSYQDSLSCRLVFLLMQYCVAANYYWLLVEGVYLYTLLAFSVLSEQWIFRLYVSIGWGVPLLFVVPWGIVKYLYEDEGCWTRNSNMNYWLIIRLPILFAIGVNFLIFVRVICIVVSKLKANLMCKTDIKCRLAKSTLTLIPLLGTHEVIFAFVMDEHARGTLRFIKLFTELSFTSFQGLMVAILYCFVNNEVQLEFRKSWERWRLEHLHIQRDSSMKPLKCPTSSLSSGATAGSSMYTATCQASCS
As to the kind of experiment: In vitro Human GLP-1 R agonist activity (cyclic AMP determination) in CHO/human GLP1R cells. It is filed as cell-based.

Series [2] can be described thus: Stability in simulated intestinal fluid. It is filed as in vitro ADME. The following applies: 2 μM peptidomimetic, simulated intestinal fluid pH 7.5, 37° C.; for half-life at 2 μM: read-out: half-life (t1/2) when incubated with simulated intestinal fluid. How it is done:
as §1

The nature of series [3]: Stability in liver microsomes. As to conditions: 2 μM peptidomimetic, human liver microsomes, 37° C.; for half-life at 2 μM: pH 7.8, read-out: half-life (t1/2) when incubated with liver microsomes. It is filed as in vitro ADME. As for the experimental part: as §1
On the technique in general: Microsomes from liver hold many membrane-bound enzymes, among them those of drug oxidation.

Series [4] in a line: Stability in human plasma. It is filed as in vitro ADME. As to conditions: 2 μM peptidomimetic, pooled human plasma, 37° C. As for the experimental part:
as §1

Series [5] is described as follows: Stability in simulated gastric fluid. In kind it is in vitro ADME. As to conditions: 2 μM peptidomimetic, simulated gastric fluid pH 1.5, 37° C.; for half-life at 2 μM: read-out: half-life (t1/2) when incubated with simulated gastric fluid. How it is done:
as §1

Take `CCc1cc(OC)ccc1-c1ccc(CC(NC(=O)[C@H](CC(=O)O)NC(=O)[C@H](CO)NC(=O)[C@@H](NC(=O)[C@H](Cc2ccccc2)NC(=O)[C@@H](NC(=O)CNC(=O)C(CCC#N)NC(=O)C(C)(C)NC(=O)[C@@H](N)Cc2c[nH]cn2)[C@@H](C)O)[C@@H](C)O)C(=O)NC(CCCc2ccccc2C(F)(F)F)C(N)=O)cc1` (single isomer, unassigned) [compound 79]: the Insulin secretion in series [1] (0.1 nM test compd.) was 16.5 ± 0.12 pg/µg/h; in series [1] (1 nM test compd.), 22.7 ± 0.17 pg/µg/h; in series [1] (10 nM test compd.), 36.5 ± 0.05 pg/µg/h. For the same compound, the “Human Glucagon receptor antagonistic activity shown as inhibition of cAMP production of Glucagon peptide” value came to 6 ± 0.02 pmol/ml/μg prt at human glucagon receptor (1 nM test compound); 5 ± 0.03 pmol/ml/μg prt on human glucagon receptor (10 nM test compound); 2 ± 0.61 pmol/ml/μg prt on human glucagon receptor (100 nM test compound); 0 pmol/ml/μg prt at human glucagon receptor (1 μM test compound); 0 pmol/ml/μg prt at human glucagon receptor (10 μM test compound). The “% degradation of peptidomimetics in 24 h when incubated with DPP-IV enzyme” value (shortened to “% degradation … with DPP-IV enzyme”) on DPP IV came to 86%. The “Human GLP-1 R activity (cAMP release), % activity with respect to control” value is 62 ± 0.11% at Human GLP-1 receptor (1 nM test compound); 94 ± 0.09% at Human GLP-1 receptor (10 nM test compound); 99 ± 0.06% at Human GLP-1 receptor (100 nM test compound); 99 ± 0.14% on Human GLP-1 receptor (1 μM test compound); 99 ± 0.19% on Human GLP-1 receptor (10 μM test compound). Further, the “% degradation of peptidomimetics in 24 h when incubated with simulated intestinal fluid” value (shortened to “% degradation … with simulated intestinal fluid”) in series [2] was 100%. The half-life at 2 μM in series [2], in series [3] and in series [5] was 30 min throughout. In addition, the “% degradation of peptidomimetics in 24 h when incubated with liver microsomes” value (“% degradation … with liver microsomes” below) in series [3] came to 100%. Moreover, the “half-life (t1/2) when incubated with human plasma” value (“half-life (t1/2) when incubated” below) in series [4] is on record as “(9) h”. Besides, the “% degradation of peptidomimetics in 24 h when incubated with human plasma” value (shortened to “% degradation … with human plasma”) in series [4] is 70%. The “% degradation of peptidomimetics in 24 h when incubated with simulated gastric fluid” value (from here on “% degradation … with simulated gastric fluid”) in series [5] is reported as 100%.

Regarding `CCc1cc(OC)ccc1-c1ccc(CC(NC(=O)[C@H](CC(=O)O)NC(=O)[C@H](CO)NC(=O)[C@@H](NC(=O)[C@H](Cc2ccccc2)NC(=O)[C@@H](NC(=O)CNC(=O)C(CCC#N)NC(=O)C(C)(C)NC(=O)[C@@H](N)Cc2c[nH]cn2)[C@@H](C)O)[C@@H](C)O)C(=O)NC(CCCc2ccccc2F)C(N)=O)cc1` (single isomer, unassigned) [compound 77], the Insulin secretion in series [1] (0.1 nM test compd.) is 15.6 ± 0.33 pg/µg/h; in series [1] (1 nM test compd.), 21.8 ± 0.16 pg/µg/h; in series [1] (10 nM test compd.), 35.6 ± 0.26 pg/µg/h. For the same compound, the “Human Glucagon receptor antagonistic activity shown as inhibition of cAMP production of Glucagon peptide” value is given as 20 ± 0.06 pmol/ml/μg prt on human glucagon receptor (1 nM test compound); 18 ± 0.09 pmol/ml/μg prt at human glucagon receptor (10 nM test compound); 16 ± 0.01 pmol/ml/μg prt on human glucagon receptor (100 nM test compound); 14 ± 0.03 pmol/ml/μg prt on human glucagon receptor (1 μM test compound); 12 ± 0.01 pmol/ml/μg prt at human glucagon receptor (10 μM test compound). Moreover, the “% degradation … with DPP-IV enzyme” value on DPP IV was found to be 74%. The “Human GLP-1 R activity (cAMP release), % activity with respect to control” value was determined as 40 ± 0.09% on Human GLP-1 receptor (1 nM test compound); 81 ± 0.07% on Human GLP-1 receptor (10 nM test compound); 87 ± 0.04% on Human GLP-1 receptor (100 nM test compound); 95 ± 0.01% on Human GLP-1 receptor (1 μM test compound); 98 ± 0.08% at Human GLP-1 receptor (10 μM test compound). For the same compound, the “% degradation … with simulated intestinal fluid” value in series [2] is recorded as 100%. Besides, the half-life at 2 μM in series [2], in series [3] and in series [5] was 30 min throughout. The “% degradation … with liver microsomes” value in series [3] amounted to 100%. Also, the “half-life (t1/2) when incubated” value in series [4] is listed as “(9) h”. In addition, the “% degradation … with human plasma” value in series [4] stood at 75%. For the same compound, the “% degradation … with simulated gastric fluid” value in series [5] was 100%.

As to `CCc1cc(OC)ccc1-c1ccc(CC(NC(=O)[C@H](CC(=O)O)NC(=O)[C@H](CO)NC(=O)[C@@H](NC(=O)C(C)(Cc2ccccc2F)NC(=O)[C@@H](NC(=O)CNC(=O)C(CCC#N)NC(=O)C(C)(C)NC(=O)[C@@H](N)Cc2c[nH]cn2)[C@H](C)O)[C@@H](C)O)C(=O)NC(CCCc2ccccc2)C(N)=O)cc1` (single isomer, unassigned) [compound 110], the Insulin secretion in series [1] (0.1 nM test compd.) was found to be 12.0 ± 0.14 pg/µg/h; in series [1] (1 nM test compd.) it was 14.3 ± 0.12 pg/µg/h; in series [1] (10 nM test compd.) it was 27.8 ± 0.32 pg/µg/h. In addition, the “Human Glucagon receptor antagonistic activity shown as inhibition of cAMP production of Glucagon peptide” value worked out at 18 ± 0.07 pmol/ml/μg prt at human glucagon receptor (1 nM test compound); 16 ± 0.01 pmol/ml/μg prt at human glucagon receptor (10 nM test compound); 12 ± 0.03 pmol/ml/μg prt at human glucagon receptor (100 nM test compound); 8 ± 0.02 pmol/ml/μg prt on human glucagon receptor (1 μM test compound); 6 ± 0.08 pmol/ml/μg prt at human glucagon receptor (10 μM test compound). Further, the “% degradation … with DPP-IV enzyme” value on DPP IV amounted to 00%. For the same compound, the half-life at 2 μM at DPP IV (DPP IV enzyme, pH 7.8, 2 μM peptidomimetic, read-out: half-life (t1/2) when incubated with DPP-IV enzyme) is > 1440 min; in series [2], > 1440 min; in series [3] it was 120 min; in series [4] (pH 7.8, read-out: half-life (t1/2) when incubated with human plasma), > 1440 min; in series [5], 240 min. In addition, the “Human GLP-1 R activity (cAMP release), % activity with respect to control” value came to 38 ± 0.11% at Human GLP-1 receptor (1 nM test compound); 77 ± 0.16% on Human GLP-1 receptor (10 nM test compound); 85 ± 0.11% at Human GLP-1 receptor (100 nM test compound); 94 ± 0.08% at Human GLP-1 receptor (1 μM test compound); 97 ± 0.05% on Human GLP-1 receptor (10 μM test compound). The “% degradation … with simulated intestinal fluid” value in series [2] is 00%. Moreover, the “% degradation … with liver microsomes” value in series [3] came out at 84%. Further, the “% degradation … with human plasma” value in series [4] is 00%. The “% degradation … with simulated gastric fluid” value in series [5] is given as 43%.

Take `CCc1cc(OC)ccc1-c1ccc(CC(NC(=O)[C@H](CC(=O)O)NC(=O)[C@H](CO)NC(=O)[C@@H](NC(=O)[C@H](Cc2ccccc2)NC(=O)[C@@H](NC(=O)CNC(=O)[C@H](CCC(N)=O)NC(=O)[C@H](CO)NC(=O)[C@@H](N)Cc2c[nH]cn2)[C@@H](C)O)[C@@H](C)O)C(=O)NC(CCCc2ccccc2F)C(N)=O)cc1` (single isomer, unassigned) [compound 45]: the results for the Insulin secretion in series [1] (0.1 nM test compd.), in series [1] (1 nM test compd.) and in series [1] (10 nM test compd.) were 11.8 ± 0.50 pg/µg/h, 14.9 ± 0.11 pg/µg/h and 27.9 ± 0.31 pg/µg/h, respectively. For the same compound, the “Human Glucagon receptor antagonistic activity shown as inhibition of cAMP production of Glucagon peptide” value at human glucagon receptor (1 nM test compound) is reported as 15 ± 0.11 pmol/ml/μg prt; at human glucagon receptor (10 nM test compound), 12 ± 0.13 pmol/ml/μg prt; on human glucagon receptor (100 nM test compound), 8 ± 0.09 pmol/ml/μg prt; at human glucagon receptor (1 μM test compound), 4 ± 0.01 pmol/ml/μg prt; on human glucagon receptor (10 μM test compound) it was 2 ± 0.08 pmol/ml/μg prt. Further, at DPP IV, the “% degradation … with DPP-IV enzyme” value was determined as 77%. For the same compound, the “Human GLP-1 R activity (cAMP release), % activity with respect to control” value on Human GLP-1 receptor (1 nM test compound) was found to be 51 ± 0.03%; on Human GLP-1 receptor (10 nM test compound), 86 ± 0.40%; on Human GLP-1 receptor (100 nM test compound), 91 ± 0.21%; at Human GLP-1 receptor (1 μM test compound) it was 99 ± 0.32%; at Human GLP-1 receptor (10 μM test compound) it was 99 ± 0.21%. Besides, in series [2], the “% degradation … with simulated intestinal fluid” value is 100%. Further, the half-life at 2 μM in series [2], in series [3] and in series [5] was 30 min in each case. For the same compound, the “% degradation … with liver microsomes” value in series [3] is given as 100%. Also, in series [4], the “half-life (t1/2) when incubated” value was “(9) h”. Also, the “% degradation … with human plasma” value in series [4] stood at 80%. Also, the “% degradation … with simulated gastric fluid” value in series [5] was 100%.
